One experiment relates to iPSC-derived NK cells. Briefly: iNK expansion by co-culture with IL21 and 41BBL expressing irK562 feeder cells. Format: cell-based, human. The conditions noted are these: about 3 μM added at day 2 of about 7 day expansion, versus without AhR inhibitor, FIG. 14. From the text:
To modulate effector cell activation during the cell expansion stage of iPSC differentiation, an AhR (aryl hydrocarbon receptor) inhibitor was discovered to improve effector cell function, including anti-tumor efficacy. iPSCs were differentiated into definitive HE cells as previously described, and were subsequently differentiated into pre-expansion NK cells, at which point they were expanded by co-culture with IL21 and 41BBL expressed by irK562 feeder cells for about 7 days. An exemplary AhR inhibitor, CH-223191 (among others such as UM729, UM171, SR1), was added to the expansion culture at day 2 with a final concentration of about 3 μM to potentiate expansion signals.

The subject of the next experiment is tumor. Briefly: anti-tumor efficacy of treated, cryopreserved iNK cells. Format: cell-based. The conditions noted are these: treated and cryopreserved cells versus untreated or control cells, FIG. 15. An excerpt: Cells that have been treated with CH-223191 were cryopreserved in liquid nitrogen long term. To assess recovery of the cells from cryopreservation, the cells were thawed and cultured in B0 medium for a period of 7 days and cell counts taken during the course of this culture. […] Further, cells that have been treated with CH-223191 and cryopreserved in liquid nitrogen were further assessed for function in vitro and in vivo.

Experiment [1] deals with hiPSC-derived CD34+ HE cells. Briefly: hiPSC monolayer differentiation to definitive HE, flow cytometric analysis of D10 cells. The experiment is classed as cell-based, human. Here is the method:
To initiate differentiation towards the hematopoietic lineage, hiPSCs were seeded as a monolayer on Day (D) 0 in the maintenance medium and allowed to adhere and expand for about 24 hours. The monolayers were maintained until around D5-D6 at which point they were dissociated into single cells and seeded as a low-density monolayer until differentiation at around D10. The D10 dissociated single cell population was sorted by FACS for further analysis and marker profiling for definitive HE characterization. Alternatively, or in addition thereto, as disclosed herein, one or more of anti-CD82, anti-CD34, and anti-CD43 antibodies were used for cell sorting the D10 cell population to obtain definitive HE cells comprising a phenotype of CD82^+, CD34^+CD82^+ or CD34^+CD43^−CD82^+, which were optionally cryopreserved in cryopreservation medium or continued with effector cell differentiation.
The flow cytometric analysis of D10 cells differentiated under control conditions was compared to cells differentiated under cytokine conditions that includes BMP4. RUNX1 is a transcription factor expressed in the cell and believed to be mostly associated with HE identity. The cells were gated on single/live events. The […] cells and the […] cells were then stained with anti-human antibodies and analyzed by LEGENDScreen™. […]
For orientation: Flow cytometry measures light scatter and fluorescence of single cells or particles in a stream.

The next experiment relates to TNF-α production. Particulars: previously shown; cited from earlier work.

For `Cc1ccccc1N=Nc1ccc(NC(=O)c2ccnn2C)c(C)c1` [CH-223191], in the experiment on iPSC-derived NK cells, the “fold expansion and yield of differentiated NK cells” value is “greater fold expansion and yield of differentiated NK cells”. In addition, the anti-tumor efficacy entry in the experiment on tumor is “enhanced anti-tumor efficacy at endpoint”. For `Fc1ccc(-c2nc(C3CCNCC3)sc2-c2ccnc(NC3CC3)n2)cc1` [DBM1285, cyclopropyl-{4-[4-(4-fluorophenyl)-2-piperidin-4-yl-thiazol-5-yl]pyrimidin-2-yl}amine], in experiment [1] (p38 MAPK inhibitor added to composition for obtaining definitive HE cells from iPSC), the “maintenance of CD82 expression (CD82+RUNX1+ subpopulation of CD34+ HE cells)” value is on record as “beneficial to maintain CD82 expression”. Also, in the experiment with TNF-α production, the TNF-α production result was “inhibit TNF-α production”.

B1: BMP4: bone morphogenetic protein, cytokine, BMP activator (protein, UniProt P12644 293-408, looked up)
Bone morphogenetic protein 4: SPKHHSQRARKKNKNCRRHSLYVDFSDVGWNDWIVAPPGYQAFYCHGDCPFPLADHLNSTNHAIVQTLVNSVNSSIPKACCVPTELSAISMLYLDEYDKVVLKNYQEMVVEGCGCR
Regarding B1, the “specification of RUNX1+ HE” value in experiment [1] (D10 cells, cytokine conditions including BMP4 versus control conditions, FIG. 1) is “specification of RUNX1^+ HE is cytokine driven”.

Values taken from US20260109951A1, “METHODS AND COMPOSITIONS FOR INDUCING HEMATOPOIETIC CELL DIFFERENTIATION” (FATE THERAPEUTICS, INC., priority 2022, published 2026).
